The values that follow come from ChEMBL document CHEMBL4000174, “Synthesis and antitumor activity of novel substituted uracil-1'(N)-acetic acid ester derivatives of 20(S)-camptothecins” (Eur J Med Chem, 2017).

For one series, the system named is Bel-7402. In words: Antiproliferative activity against human Bel7402 cells after 96 hrs by MTT assay. Type of series: functional, cell-based. The note with it: Bel-7402, 96 h. For orientation: Tetrazolium assays rely on reduction of a dye to a coloured formazan, in cell work by metabolically active cells.
The test system of a further series is A549. In words: Antiproliferative activity against human A549 cells after 96 hrs by MTT assay. Type of series: functional, cell-based. The note with it: A549, 96 h.
Series [1] deals with BGC-823. Briefly: Antiproliferative activity against human BGC823 cells after 96 hrs by MTT assay. Type of series: functional, cell-based. The note with it: BGC-823, 96 h.
A further series relates to A2780. In words: Antiproliferative activity against human A2780 cells after 96 hrs by MTT assay. Particulars: A2780, 96 h. Type of series: functional, cell-based.
The test system of a further series is HCT-8. Briefly: Antiproliferative activity against human HCT8 cells after 96 hrs by MTT assay. Type of series: functional, cell-based. The note with it: HCT-8, 96 h.
Series [2] deals with Mus musculus. Briefly: Toxicity in Kunming mouse implanted with mouse H22 cells assessed as body weight at 40 mg/kg, ip administered on day 1 and day 5 (reference value: 32.5 g). Type of series: organism-based. Particulars: in vivo.
For series [3], the system named is Mus musculus. Briefly: Toxicity in Kunming mouse implanted with mouse H22 cell assessed as survival at 40 mg/kg, ip administered on day 1 and day 5. Type of series: organism-based. Particulars: in vivo.
Series [4] deals with H22. Briefly: Antitumor activity against mouse H22 cells implanted in Kunming mouse assessed as tumor growth inhibition at 40 mg/kg, ip administered on day 1 and day 5 relative to control relative to control. Type of series: functional. The note with it: read-out: TGI.
Series [5] has as its system Mus musculus. In words: Toxicity in Kunming mouse implanted with mouse H22 cells assessed as body weight at 60 mg/kg, ip administered twice (reference value: 31.1 g). Type of series: organism-based. The note with it: in vivo.
The subject of series [6] is H22. In words: Antitumor activity against mouse H22 cells implanted in Kunming mouse assessed as tumor growth inhibition at 100 mg/kg, ip administered once relative to control. Type of series: functional. Particulars: read-out: TGI.
Series [7] concerns Mus musculus. In words: Toxicity in Kunming mouse implanted with mouse H22 cells assessed as body weight at 100 mg/kg, ip administered once (reference value: 31.1 g). Type of series: organism-based. Particulars: in vivo.
Series [8] deals with H22. Briefly: Antitumor activity against mouse H22 cells implanted in Kunming mouse assessed as tumor growth inhibition at 60 mg/kg, ip administered twice relative to control. Type of series: functional. The note with it: read-out: TGI.
Series [9] relates to H22. Briefly: Antitumor activity against mouse H22 cells implanted in Kunming mouse assessed as tumor growth inhibition at 100 mg/kg, ip administered twice relative to control. The note with it: read-out: TGI.
For series [10], the system named is Mus musculus. Briefly: Toxicity in BALB/c nude mouse xenografted with human BGC823 cells assessed as body weight at 50 mg/kg, ip administered once in a week for two weeks starting from 6 days post tumor transplantation and measured every 3 days during compound dosing for 15 days (reference value: 23.6 g). Type of series: organism-based. The note with it: in vivo, 360 h.

Series [11] has as its system BGC-823. In words: Antitumor activity against human BGC823 cells xenografted in BALB/c nude mouse assessed as tumor growth inhibition at 50 mg/kg, ip administered once in a week for two weeks starting from 6 days post tumor transplantation measured 27 to 30 days post tumor transplantation relative to control. Type of series: functional. Particulars: BGC-823, ip, read-out: TGI.

The test system of series [12] is Mus musculus. In words: Toxicity in BALB/c nude mouse xenografted with human BGC823 cells assessed as mouse survival at 50 mg/kg, ip administered once in a week for two weeks starting from 6 days post tumor transplantation. Type of series: organism-based. Particulars: in vivo, 144 h.
For series [13], the system named is H22. Briefly: Antitumor activity against mouse H22 cells implanted in Kunming mouse assessed as tumor growth inhibition at 24 mg/kg, ip administered once in every 3 days totally for 3 times relative to control. Type of series: functional. Particulars: 72 h, read-out: TGI.
The test system of series [14] is Mus musculus. In words: Toxicity in Kunming mouse implanted with mouse H22 cells assessed as body weight at 24 mg/kg, ip administered once in every three days totally for 3 times (reference value: 32.5 g). Type of series: organism-based. Particulars: in vivo.

As a reminder, the IC50 is the point on the concentration scale where inhibition reaches its midpoint. Read a high IC50 as weaker potency. Take `CC[C@@]1(OC(=O)Cn2cc(F)c(=O)[nH]c2=O)C(=O)OCc2c1cc1n(c2=O)Cc2cc3c([N+](=O)[O-])cccc3nc2-1`: the IC50 worked out at 16 nM in the series with Bel-7402; 81 nM with A549; 17 nM in the series on BGC-823 [1]; 115 nM in the series with A2780; 13 nM in the series on HCT-8.
In the same order, the values of `CC[C@@]1(OC(=O)Cn2ccc(=O)[nH]c2=O)C(=O)OCc2c1cc1n(c2=O)Cc2cc3ccccc3nc2-1` are 18 nM, 46 nM, 17 nM, 160 nM and 14 nM.
On to `CC[C@@]1(OC(=O)Cn2ccc(=O)[nH]c2=O)C(=O)OCc2c1cc1n(c2=O)Cc2cc3c([N+](=O)[O-])cccc3nc2-1`, for which the Activity in the series on Mus musculus [2] was 32 g; with Mus musculus [3] it was “Non-Toxic”. In addition, the IC50 in the series with Bel-7402 was 18 nM; with A549, 51 nM; with BGC-823 [1] it was 17 nM; in the series with A2780, 73 nM; with HCT-8, 14 nM. Besides, in the series on H22 [4], the inhibition in vivo at 40 mg/kg turned out to be 11%.
Regarding `CC[C@@]1(OC(=O)Cn2cc(Br)c(=O)[nH]c2=O)C(=O)OCc2c1cc1n(c2=O)Cc2cc3c([N+](=O)[O-])cccc3nc2-1`, the IC50 with Bel-7402 came out at 13 nM; in the series on A549, 90 nM; in the series on BGC-823 [1] it was 15 nM; in the series on A2780, 183 nM; in the series on HCT-8, 13 nM.
`CC[C@@]1(OC(=O)Cn2cc(Cl)c(=O)[nH]c2=O)C(=O)OCc2c1cc1n(c2=O)Cc2cc3c([N+](=O)[O-])cccc3nc2-1`: the IC50 stood at 16 nM in the series with Bel-7402; 75 nM in the series on A549; 17 nM with BGC-823 [1]; 221 nM in the series with A2780; 13 nM with HCT-8.
As for `CCc1c2c(nc3ccccc13)-c1cc3c(c(=O)n1C2)COC(=O)[C@@]3(CC)OC(=O)Cn1cc(Cl)c(=O)[nH]c1=O`, the Activity in the series on Mus musculus [2] was 27 g; with Mus musculus [5] it was 26.2 g; with Mus musculus [3] it was “Non-Toxic”; in the series on Mus musculus [7], 25.2 g. Moreover, the IC50 stood at 12 nM with Bel-7402; 38 nM in the series on A549; 17 nM with BGC-823 [1]; 670 nM with A2780; 2 nM with HCT-8. Also, the inhibition in vivo at 100 mg/kg with H22 [6] worked out at 58.7%. The inhibition in vivo at 40 mg/kg in the series with H22 [4] is 46.2%. The inhibition in vivo at 60 mg/kg in the series with H22 [8] was found to be 76.6%.
`O=P1(N(CCCl)CCCl)NCCCO1` (centres undefined) [CYCLOPHOSPHAMIDE ANHYDROUS]: the inhibition in vivo at 100 mg/kg in the series with H22 [9] came out at 93.7%.
As for `CCc1c2c(nc3ccccc13)-c1cc3c(c(=O)n1C2)COC(=O)[C@@]3(CC)OC(=O)Cn1cc(I)c(=O)[nH]c1=O`, the IC50 in the series with Bel-7402 was 4510 nM; in the series with A549, 710 nM; in the series on BGC-823 [1], 2570 nM; in the series on A2780 it was 669 nM; in the series with HCT-8, 586 nM.
The matching figures for `CCc1c2c(nc3ccccc13)-c1cc3c(c(=O)n1C2)COC(=O)[C@@]3(CC)OC(=O)Cn1ccc(=O)[nH]c1=O`: 14 nM, 65 nM, 17 nM, 86 nM and 2 nM.
The matching figures for `CC[C@@]1(OC(=O)Cn2cc(I)c(=O)[nH]c2=O)C(=O)OCc2c1cc1n(c2=O)Cc2cc3c([N+](=O)[O-])cccc3nc2-1`: 13 nM, 117 nM, 16 nM, 200 nM and 14 nM.
Consider `CCc1c2c(nc3ccc(OC(=O)N4CCC(N5CCCCC5)CC4)cc13)-c1cc3c(c(=O)n1C2)COC(=O)[C@]3(O)CC` [IRINOTECAN], for which the Activity is recorded as 20.5 g in the series with Mus musculus [10] and “Non-Toxic” in the series on Mus musculus [12]. The inhibition in vivo at 50 mg/kg in the series with BGC-823 [11] was determined as 94.1%.
As to `CC[C@@]1(OC(=O)Cn2cc(I)c(=O)[nH]c2=O)C(=O)OCc2c1cc1n(c2=O)Cc2cc3ccccc3nc2-1`, the IC50 amounted to 3280 nM with Bel-7402; 6400 nM with A549; 7890 nM in the series on BGC-823 [1]; 750 nM in the series with A2780; 957 nM with HCT-8.
The matching figures for `CC[C@@]1(OC(=O)Cn2cc(F)c(=O)[nH]c2=O)C(=O)OCc2c1cc1n(c2=O)Cc2cc3ccccc3nc2-1`: 86 nM, 126 nM, 64 nM, 68 nM and 109 nM.
In the case of `CC[C@@]1(OC(=O)Cn2cc(Br)c(=O)[nH]c2=O)C(=O)OCc2c1cc1n(c2=O)Cc2cc3ccccc3nc2-1`, the Activity in the series on Mus musculus [2] is 32.1 g; with Mus musculus [3], “Non-Toxic”. Further, the IC50 in the series with Bel-7402 came out at 12 nM; in the series on A549, 48 nM; in the series on BGC-823 [1], 16 nM; in the series with A2780 it was 160 nM; with HCT-8, 6 nM. Also, the inhibition in vivo at 40 mg/kg in the series with H22 [4] is 6.39%.
As for `CCc1c2c(nc3ccccc13)-c1cc3c(c(=O)n1C2)COC(=O)[C@@]3(CC)OC(=O)Cn1cc(Br)c(=O)[nH]c1=O`, the IC50 with Bel-7402 was 12 nM; in the series with A549, 88 nM; in the series with BGC-823 [1], 31 nM; in the series with A2780 it was 182 nM; with HCT-8, below 2 nM.
Regarding `CC(=O)O[C@H]1C(=O)[C@@]2(C)[C@H]([C@H](OC(=O)c3ccccc3)[C@]3(O)C[C@H](OC(=O)[C@H](O)[C@@H](NC(=O)c4ccccc4)c4ccccc4)C(C)=C1C3(C)C)[C@]1(OC(C)=O)CO[C@@H]1C[C@@H]2O` [PACLITAXEL], the inhibition in vivo at 24 mg/kg with H22 [13] was found to be 73.8%. Besides, the Activity in the series with Mus musculus [14] is reported as 18.9 g.
As for `CC[C@@]1(O)C(=O)OCc2c1cc1n(c2=O)Cc2cc3ccccc3nc2-1` [CAMPTOTHECIN], the IC50 was 14 nM with Bel-7402; 6 nM with A549; 57 nM in the series on BGC-823 [1]; 29 nM in the series on A2780; 24 nM in the series on HCT-8.
As for `CC[C@@]1(OC(=O)Cn2cc(Cl)c(=O)[nH]c2=O)C(=O)OCc2c1cc1n(c2=O)Cc2cc3ccccc3nc2-1`, the IC50 in the series with Bel-7402 came out at 17 nM; with A549, 54 nM; in the series on BGC-823 [1], 16 nM; with A2780, 110 nM; in the series on HCT-8, 13 nM.
